Columns and labels:
[1] = molecular target: T1, Serine/threonine-protein kinase pim-3 (Homo sapiens, UniProt Q86V86); assay: Inhibition of PIM3 (unknown origin)
[2] = molecular target: T2, Serine/threonine-protein kinase pim-1 (Homo sapiens, UniProt P11309); assay: Inhibition of PIM1 (unknown origin) using NH2-AGAGRSRHSSYPAGT-OH as substrate by Kinase-Glo assay
[3] = molecular target: T3, Serine/threonine-protein kinase pim-2 (Homo sapiens, UniProt Q9P1W9)
[4] = molecular target: T2, Serine/threonine-protein kinase pim-1
[5] = molecular target: T3, Serine/threonine-protein kinase pim-2; assay: Inhibition of PIM2 (unknown origin) using NH2-AGAGRSRHSSYPAGT-OH as substrate by Kinase-Glo assay
[6] = molecular target: T1, Serine/threonine-protein kinase pim-3; assay: Inhibition of PIM3 (unknown origin) using NH2-AGAGRSRHSSYPAGT-OH as substrate by Kinase-Glo assay
EOL1 = assay: Antitumor activity against human EOL-1 cells xenografted in po dosed mouse administered daily; assay type: functional, organism-based
[7] = molecular target: T1, Serine/threonine-protein kinase pim-3; assay: Inhibition of PIM3 (unknown origin) using Biotin-AGAGRSRHSSYPAGT-OH as substrate after 2 hrs by AlphaScreen assay
[8] = molecular target: T3, Serine/threonine-protein kinase pim-2; assay: Inhibition of PIM2 (unknown origin) using Biotin-AGAGRSRHSSYPAGT-OH as substrate after 2 hrs by AlphaScreen assay
[9] = molecular target: T2, Serine/threonine-protein kinase pim-1; assay: Inhibition of PIM1 (unknown origin) using Biotin-AGAGRSRHSSYPAGT-OH as substrate after 2 hrs by AlphaScreen assay

T2 sequence (P11309 whole entry): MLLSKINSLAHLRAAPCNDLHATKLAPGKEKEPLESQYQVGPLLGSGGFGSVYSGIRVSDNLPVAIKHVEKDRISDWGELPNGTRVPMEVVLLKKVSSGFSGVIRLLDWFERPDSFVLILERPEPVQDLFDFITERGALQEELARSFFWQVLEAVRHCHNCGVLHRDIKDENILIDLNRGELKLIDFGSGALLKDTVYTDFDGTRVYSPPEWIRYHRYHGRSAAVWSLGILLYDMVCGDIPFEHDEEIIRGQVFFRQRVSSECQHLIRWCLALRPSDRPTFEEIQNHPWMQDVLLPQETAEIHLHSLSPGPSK
T3 sequence (Q9P1W9 whole entry): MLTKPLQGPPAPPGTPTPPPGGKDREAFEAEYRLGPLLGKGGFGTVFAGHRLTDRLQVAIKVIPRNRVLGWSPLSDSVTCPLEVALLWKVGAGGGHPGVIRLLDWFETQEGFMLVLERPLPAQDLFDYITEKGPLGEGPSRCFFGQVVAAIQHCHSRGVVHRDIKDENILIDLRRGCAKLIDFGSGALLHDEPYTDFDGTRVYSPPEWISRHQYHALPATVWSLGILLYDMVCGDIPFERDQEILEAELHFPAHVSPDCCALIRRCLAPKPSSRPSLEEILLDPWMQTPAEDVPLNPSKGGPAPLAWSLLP

| Ki [1] [nM] | Ki [3] [nM] | Ki [4] [nM] | SMILES | also measured |
| --- | --- | --- | --- | --- |
| 24 | – | – | CN1CCC(CNc2ccc3ncc(-c4cccc(OC(F)(F)F)c4)n3n2)CC1 [SGI-1776] | – |
| 3 | 6 | – | Nc1ccc(-c2ccccn2)nc1C(=O)Nc1cnccc1N1CCC[C@H](N)C1 | Ki [2]: < 1 nM |
| 1700 | > 12500 | 1000 | CC(=O)Nc1nc(C(=O)Nc2cnc(N)cc2N2CCCCC2)cs1 | – |
| 220 | > 12500 | 61 | CC(=O)Nc1nc(C(=O)Nc2cnccc2N2CCCCC2)cs1 | – |
| – | – | – | Nc1ccc(-c2ccccc2Cl)nc1C(=O)Nc1cnccc1N1CCC[C@H](N)C1 | Ki [2]: < 1 nM; Ki [5]: < 1 nM; Ki [6]: < 1 nM |
| > 12500 | > 12500 | > 12500 | CC(=O)Nc1nc(C(=O)Nc2cnc(N)nc2N2CCCCC2)cs1 | – |
| 90 | 1600 | 30 | Nc1nccnc1C(=O)Nc1cnccc1N1CCCCC1 | – |
| – | – | – | C[C@H]1CN(c2ccncc2NC(=O)c2ccc(F)c(-c3c(F)cccc3F)n2)C[C@@H](N)[C@@H]1O | Activity (EOL1): Dose-dependent effect |
| 1500 | 7000 | 460 | Nc1nccnc1C(=O)Nc1ccccc1N1CCCCC1 | – |
| – | – | – | Nc1ccc(-c2c(F)cccc2F)nc1C(=O)Nc1cnccc1N1CCC[C@H](N)C1 | Ki [7]: 0.006 nM; Ki [8]: 0.004 nM; Ki [9]: 0.002 nM |
| – | 8 | – | COc1ccccc1-c1ccc(N)c(C(=O)Nc2cnccc2N2CCC[C@H](N)C2)n1 | Ki [2]: < 1 nM; Ki [6]: < 1 nM |
| 12000 | > 12500 | 3300 | Nc1cccnc1C(=O)Nc1ccccc1N1CCCCC1 | – |
| 490 | 2000 | 122 | NCC(=O)N1CCN(c2ccncc2NC(=O)c2nccnc2N)CC1 | – |
| 1000 | > 12500 | 810 | Nc1nccnc1C(=O)Nc1cnccc1N1CCNCC1 | – |
| 15 | 122 | 4 | Nc1ccc(Oc2ccccc2)nc1C(=O)Nc1cnccc1N1CCC[C@H](N)C1 | – |
| 3 | 7 | 3 | Nc1ccc(-c2ccccc2C(F)(F)F)nc1C(=O)Nc1cnccc1N1CCC[C@H](N)C1 | – |
| 230 | > 12500 | – | CC(=O)Nc1nc(C(=O)Nc2ccccc2N2CCCCC2)cs1 | – |
| > 12500 | > 12500 | > 12500 | CC(=O)Nc1nc(C(=O)Nc2cncnc2N2CCCCC2)cs1 | – |
| 140 | 6300 | 59 | CC(=O)Nc1nc(C(=O)Nc2ccncc2N2CCCCC2)cs1 | – |
| 4 | 12 | – | Nc1ccc(-c2cccnc2)nc1C(=O)Nc1cnccc1N1CCC[C@H](N)C1 | Ki [2]: < 1 nM |
| 50 | 700 | 11 | NCC1CCCN(c2ccncc2NC(=O)c2nccnc2N)C1 (racemic) | – |
| 11000 | > 12500 | 2300 | Nc1cccc(C(=O)Nc2ccccc2N2CCCCC2)n1 | – |
| 20 | 70 | – | Nc1nccnc1C(=O)Nc1cnccc1N1CCC[C@H](N)C1 | – |
| 5 | 6 | – | Nc1ccc(-c2ccncc2)nc1C(=O)Nc1cnccc1N1CCC[C@H](N)C1 | Ki [2]: < 1 nM |
| > 12500 | > 12500 | 12300 | O=C(Nc1ccccc1N1CCCCC1)c1ncccc1O | – |
| > 12500 | > 12500 | > 12500 | O=C(Nc1ccccc1N1CCCCC1)c1ncc[nH]1 | – |
| 3 | 16 | 1 | Nc1nccc(-c2ccc(N)c(C(=O)Nc3cnccc3N3CCC[C@H](N)C3)n2)n1 | – |
| 180 | 680 | 56 | NCCC(=O)N1CCN(c2ccncc2NC(=O)c2nccnc2N)CC1 | – |
| 0.007 | 0.006 | 0.002 | Nc1ccc(-c2c(F)cccc2F)nc1C(=O)Nc1cnccc1N1CC[C@@H](O)[C@H](N)C1 | – |
| 20 | 110 | 18 | Nc1cccnc1C(=O)Nc1cnccc1N1CCC[C@H](N)C1 | – |

| SMILES | Ki [1] [nM] | Ki [3] [nM] | Ki [4] [nM] | also measured |
| --- | --- | --- | --- | --- |
| O=C(Nc1ccccc1N1CCCCC1)c1cscn1 | > 12500 | > 12500 | 1800 | – |
